# Source: patent US20250382298A1, “NITROGEN-CONTAINING COMPOUND AND USE THEREOF” (SUZHOU GENHOUSE BIO CO., LTD., priority 2022, published 2025)
# What was measured:
# OVCAR3 cells = assay: Detection of OVCAR3 cell proliferation activity by CTG method; type: cell-based; settings: CellTiter-Glo, 7 days
# Procedure, shortened: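 OVCAR3 cells (2000/well) were exposed for 7 days to compound at 10 μM to 0.026 nM, 5-fold steps, in duplicate. Viability was read as CellTiter-Glo luminescence. A plate read on the day of compound addition served as the Max value for IC50 derivation.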
# [1] = Stability test in human liver microsomes; type: in vitro ADME, humans; settings: human liver microsomes 0.5 mg/mL, 1.0 μM substrate; for CLint scaled at 1 μM / half-life at 1 μM: pH 7.4; for CLint scaled at 1 μM: read-out: HLM 0.5 CLint(liver); for half-life at 1 μM: read-out: HLM 0.5 T½
# Description: (§1) The phase I metabolic stability of the compounds in liver microsomes of CD-1 mice, Sprague-Dawley rats, beagle dogs, cynomolgus monkeys, and humans was assessed.
# (§2) The animal and human liver microsomes used in the test system were purchased from Xenotech, Corning, or other qualified suppliers and stored in a freezer at a temperature below −60° C. prior to use.
# (§3) The test samples and control compounds were separately incubated with animal and human liver microsomes at 37±1° C. for a period of incubation time up to 60 min. The samples were removed at the indicated time points, and the reaction was stopped with acetonitrile or another organic solvent containing an internal standard. After centrifugation, the resulting supernatants were assayed by the liquid chromatography-tandem mass spectrometry (LC-MS/MS) method.
# (§4) 73.21 g of dipotassium hydrogen phosphate trihydrate and 10.78 g of potassium dihydrogen phosphate were dissolved in 4000 mL of ultrapure water. The solution was adjusted to pH 7.40±0.10 with 10% phosphoric acid or 1 M potassium hydroxide to make a final concentration of 100 mM.
# (§5) The test sample powder was prepared into a stock solution at a certain concentration with DMSO or another organic solvent, which was then further diluted with a suitable organic solvent.
# (§6) Microsomes of each species were diluted into a 2× working solution with a 100 mM potassium phosphate buffer. The final concentration of the microsomes in the reaction system was 0.5 mg/mL.
# (§7) An appropriate amount of nicotinamide adenine dinucleotide phosphate (NADP) and isocitric acid (ISO) powder was weighed out, dissolved in a magnesium chloride solution, and shaken and mixed well. An appropriate amount of isocitrate dehydrogenase (IDH) was added, and the mixture was mixed well by gently turning upside down. The final concentrations in the reaction system were: 1 mM NADP, 1 mM magnesium chloride, 6 mM ISO, and 1 unit/mL IDH.
# (§8) The stop solution was prepared with acetonitrile or another organic solvent containing an internal standard (tolbutamide or another suitable compound). The prepared stop solution was stored in a freezer at 2-8° C.
# (§9) Incubation was performed in a 96-well plate. Eight incubation plates were prepared and designated T0, T5, T15, T30, T45, T60, Blank60, and NCF60, respectively. The first 6 plates corresponded to reaction time points of […], respectively. No test sample or control compound was added to the Blank60 plate, and samples were taken after 60 min of incubation. In the NCF60 plate, incubation was performed for 60 min using the potassium phosphate buffer instead of the NADPH regeneration system solution. Three replicates were made for samples in all conditions.
# (§10) The microsomes and the test sample or control compound were mixed, and then the incubation plates Blank60, T5, T15, T30, T45, and T60 except for TO and NCF60 were placed in a 37° C. water bath for pre-incubation for about 10 min. In the incubation plate T0, a stop solution was first added, followed by addition of the NADPH regeneration system working solution, and 98 μL of the potassium phosphate buffer was added to each sample well of the incubation plate NCF60 to initiate the reaction. After the pre-incubation of the incubation plates Blank60, T5, T15, T30, T45, and T60 was completed, 98 μL of the NADPH regeneration system working solution was added to each sample well to initiate the reaction. The reaction temperature was 37±1° C., the final volume of the reaction was 200 μL, and the reaction system included 0.5 mg/mL microsomes, 1.0 μM substrate, 1 mM NADP, 6 mM ISO, and 1 unit/ml IDH.
# (§11) At 5 min, 15 min, […], 45 min, and 60 min, a cold stop solution containing an internal standard was added to the reaction plate to stop the reaction.
# (§12) All the reaction plates after the reaction was stopped were shaken well and centrifuged at 3220×g at 4° C. for 20 min. After the supernatant was diluted at a certain ratio, LC-MS/MS analysis was performed. […]
# [2] = Stability test in rat liver microsomes; type: in vitro ADME, Sprague-Dawley rats; settings: rat liver microsomes 0.5 mg/mL, 1.0 μM substrate; for CLint scaled at 1 μM / half-life at 1 μM: Sprague-Dawley, pH 7.4; for CLint scaled at 1 μM: read-out: RLM 0.5 CLint(liver); for half-life at 1 μM: read-out: RLM 0.5 T½
# Description: as §1, §2, §3, §4, §5, §6, §7, §8, §9, §10, §11, §12
# [3] = target: cytochrome oxidase P450 2C19 (Homo sapiens (Human), UniProt P33261); assay: Inhibition of cytochrome oxidase P450 2C19; type: in vitro ADME; settings: liver microsomes, CYP2C19
# cytochrome oxidase P450 2C19, sequence (P33261 whole entry): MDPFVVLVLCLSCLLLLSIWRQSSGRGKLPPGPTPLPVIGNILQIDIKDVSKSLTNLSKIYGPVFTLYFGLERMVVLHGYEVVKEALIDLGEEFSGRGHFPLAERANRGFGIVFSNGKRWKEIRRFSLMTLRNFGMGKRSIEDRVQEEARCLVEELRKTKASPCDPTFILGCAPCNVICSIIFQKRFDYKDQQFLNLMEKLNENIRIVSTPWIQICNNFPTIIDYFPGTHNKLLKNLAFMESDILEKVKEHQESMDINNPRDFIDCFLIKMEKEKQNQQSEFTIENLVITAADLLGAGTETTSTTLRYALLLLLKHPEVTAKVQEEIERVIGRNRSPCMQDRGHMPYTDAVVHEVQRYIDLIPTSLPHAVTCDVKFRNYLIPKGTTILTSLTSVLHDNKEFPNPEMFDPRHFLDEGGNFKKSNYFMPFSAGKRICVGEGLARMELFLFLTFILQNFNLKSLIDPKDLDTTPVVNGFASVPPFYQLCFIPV
"IC50 (OVCAR3 cells; Homo sapiens, OVCAR-3, 168 h) [nM]",CLint scaled at 1 μM [1] [mL/min/kg],half-life at 1 μM [1] [min],CLint scaled at 1 μM [2] [mL/min/kg],half-life at 1 μM [2] [min],IC50 [3] [µM],Structure (SMILES),IC50 (OVCAR3 cells) [nM],HLM 0.5 CLint(liver) [1] [mL/min/kg],HLM 0.5 T½ [1] [min],RLM 0.5 CLint(liver) [2] [mL/min/kg],RLM 0.5 T½ [2] [min]
6.3,–,–,–,–,–,O=C(Nc1cn2ccnc2c(N2CCC(F)(F)CC2)n1)c1ccc(NS(=O)(=O)CCO)cc1N1CC2CCC(C2)C1 [Compound 17],–,–,–,–,–
–,11.6,108,27.3,91.5,> 10,CS(=O)(=O)Nc1ccc(C(=O)Nc2cn3ccnc3c(N3CCC(F)(F)CC3)n2)c(N2CC3CCC(C3)C2)c1 [Compound 19],–,–,–,–,–
–,< 8.6,> 145,< 17.3,> 145,> 10,O=C(Nc1cc2cccnc2c(N2CCC(F)(F)CC2)n1)c1ccc(NS(=O)(=O)CCO)cc1N1CCC2(CC1)CC2 [Compound 21],–,–,–,–,–
11.2,–,–,–,–,–,O=C(Nc1cc2cc[nH]c2c(N2CCC(F)(F)CC2)n1)c1ccc(NS(=O)(=O)CCO)cc1N1CCC2(CC1)CC2 [Compound 22],–,–,–,–,–
6.4,< 8.6,> 145,< 17.3,> 145,–,O=C(Nc1cn2ncnc2c(N2CCC(F)(F)CC2)n1)c1ccc(NS(=O)(=O)CCO)cc1N1CCC2(CC1)CC2 [Compound 23],–,–,–,–,–
–,1.9,920,4.4,560,> 10,O=C(Nc1cn2c(F)cnc2c(N2CCC(F)(F)CC2)n1)c1ccc(NS(=O)(=O)CCO)cc1N1CCC2(CC1)CC2 [Compound 34],–,–,–,–,–
–,14.3,121,9,276,0.98,CS(=O)(=O)Nc1ccc(C(=O)Nc2cc3cc[nH]c3c(N3CCC(F)(F)CC3)n2)c(N2CCC3(CC2)CC3)c1 [Compound 47],–,–,–,–,–

# Second part, the molecule before the results:
Structure (SMILES),"IC50 (OVCAR3 cells; Homo sapiens, OVCAR-3, 168 h) [nM]",CLint scaled at 1 μM [1] [mL/min/kg],half-life at 1 μM [1] [min],CLint scaled at 1 μM [2] [mL/min/kg],half-life at 1 μM [2] [min],IC50 [3] [µM],IC50 (OVCAR3 cells) [nM],HLM 0.5 CLint(liver) [1] [mL/min/kg],HLM 0.5 T½ [1] [min],RLM 0.5 CLint(liver) [2] [mL/min/kg],RLM 0.5 T½ [2] [min]
Cc1cc(NC(=O)c2ccc(NS(=O)(=O)CCO)cc2N2CC3CCC(C3)C2)nc(N2CCC(F)(F)CC2)n1 [Compound 3],85,–,–,–,–,–,–,–,–,–,–
O=C(Nc1cc2ccccc2c(N2CCC(F)(F)CC2)n1)c1ccc(NS(=O)(=O)CCO)cc1N1CCC2(CC1)CC2 [Compound 6],118,< 8.6,> 145,< 17.3,> 145,> 10,–,–,–,–,–
O=C(Nc1cn2ccnc2c(N2CCC(F)(F)CC2)n1)c1ccc(NS(=O)(=O)CCO)cc1N1CCC2(CC1)CC2 [Compound 8],5.8,< 8.6,> 145,< 17.3,> 145,> 10,–,–,–,–,–
CS(=O)(=O)Nc1ccc(C(=O)Nc2cn3ccnc3c(N3CCC(F)(F)CC3)n2)c(N2CCC3(CC2)CC3)c1 [Compound 10],16,< 8.6,> 145,19.3,129,–,–,–,–,–,–
O=C(Nc1cc2c(c(N3CCC(F)(F)CC3)n1)COC2)c1ccc(NS(=O)(=O)CCO)cc1N1CCC2(CC1)CC2 [Compound 14],5.6,22.3,56,34.3,72.8,–,–,–,–,–,–
O=C(Nc1cc2ccsc2c(N2CCC(F)(F)CC2)n1)c1ccc(NS(=O)(=O)CCO)cc1N1CCC2(CC1)CC2 [Compound 15],24,< 8.6,> 145,17.2,145,–,–,–,–,–,–
O=C(Nc1cn2cnnc2c(N2CCC(F)(F)CC2)n1)c1ccc(NS(=O)(=O)CCO)cc1N1CCC2(CC1)CC2 [Compound 24],–,–,–,–,–,–,17.8,9.4,133.2,29.5,84.6
